Experimental findings from publication PMC4140855, “Production of an Attenuated Phenol-Soluble Modulin Variant Unique to the MRSA Clonal Complex 30 Increases Severity of Bloodstream Infection” (PLoS Pathogens, 2014) are described below.

Assay [1] concerns kidneys (hematogenous seeding). In words: Mouse bacteremia (renal abscess) model. It is filed as in vivo. The following applies: expressed in MRSA252 and 22030, versus isogenic strains expressing non-CC30 PSMα3. How it is done:
(A) The MRSA252 strain (252, expressing PSMα3N22Y) was compared to a strain (252*) in which the psmα3 gene was changed to express non-CC30 PSMα3 in a mouse model of blood infection. Hematogenous seeding into the kidneys was measured 4 days after infecting mice via the tail vein with 1×10^7 CFU. Results from kidneys with considerable bacterial numbers (>10^3 CFU) are shown in the graph; the number of kidneys with lower or no bacteria is shown at the bottom. Analysis of significance was performed with the numbers obtained from all kidneys; *, p<0.05. Number of mice used per strain: 10. Two counts per analyzed kidney were performed. (B) Experiment as in (A) with strain 22030 expressing PSMα3N22Y and the isogenic 22030* strain expressing PSMα3. Number of mice used per strain: 20; two counts per analyzed kidney are included; inoculum: 1×10^6. *, p<0.05. (C, D) Tubulointerstitial nephritis with large colonies of bacteria (arrows) in kidneys infected with strain 252, magnification 100× (C) and 200× (D). (E) Absence of signs of infection in kidneys infected with strain 252* (magnification 100×).
For the renal abscess model, S. aureus strains were inoculated from a pre-culture and grown to mid-exponential growth phase (∼2 h), harvested, washed, and diluted with sterile PBS. […]

The next assay deals with human neutrophils. In words: Chemotaxis of human neutrophils (transwell migration). It is filed as cell-based. The following applies: synthetic peptides, all tested concentrations, three donors, quadruplicate, compared to PSMα3N22Y. The protocol: Figure 3 PSMα3N22Y has decreased chemotactic activity toward human neutrophils. (A) Chemotaxis of human neutrophils (neutrophil migration) was measured using a transwell system with synthetic peptides at the indicated concentrations. Neutrophils were from three donors and the measurements were performed in quadruplicate. **, p<0.01; ****, p<0.0001. (B) Chemotaxis of human neutrophils tested with culture filtrates (diluted 1∶100) of strains MRSA252 (252, expressing PSMα3N22Y) and 252* (MRSA252 altered to express PSMα3); ****, p<0.0001. Data are from two donors with triplicate measurements. […]
Human neutrophils were isolated from venous blood of healthy donors as described, [39]. Neutrophil chemotaxis and Ca^2+ flux were determined as previously described, [24]. […] Chemotaxis of neutrophils was determined using a transwell system (Costar) with analysis of neutrophil migration using fluorescence labeling. Calcium fluxes were monitored as a surrogate marker for chemotaxis since it can be measured more robustly and accurately than chemotaxis. For measurement of Ca^2+ fluxes, 5×10^6 neutrophils/ml were labeled with a fluorescent dye and analyzed with a FACScalibur (Becton Dickinson) as described. […] Measurements of 2,000 events were performed and Ca^2+ flux was expressed as relative fluorescence corrected for buffer controls. […]

`CSCC[C@H](NC=O)C(=O)N[C@@H](CCC(=O)O)C(=O)N[C@@H](Cc1ccccc1)C(=O)N[C@H](C(=O)N[C@@H](C)C(=O)N[C@@H](CCCCN)C(=O)N[C@@H](CC(C)C)C(=O)N[C@@H](Cc1ccccc1)C(=O)N[C@@H](CCCCN)C(=O)N[C@@H](Cc1ccccc1)C(=O)N[C@@H](Cc1ccccc1)C(=O)N[C@@H](CCCCN)C(=O)N[C@@H](CC(=O)O)C(=O)N[C@@H](CC(C)C)C(=O)N[C@@H](CC(C)C)C(=O)NCC(=O)N[C@@H](CCCCN)C(=O)N[C@@H](Cc1ccccc1)C(=O)N[C@@H](CC(C)C)C(=O)NCC(=O)N[C@@H](CC(N)=O)C(=O)N[C@@H](Cc1ccc(O)cc1)C(=O)O)C(C)C` [PSMα3N22Y]: in assay [1], the “Capacity to cause sepsis and subsequent complications” value was “increased capacity to cause sepsis and subsequent complications”.

For the compound `CSCC[C@H](NC=O)C(=O)N[C@@H](CCC(=O)O)C(=O)N[C@@H](Cc1ccccc1)C(=O)N[C@H](C(=O)N[C@@H](C)C(=O)N[C@@H](CCCCN)C(=O)N[C@@H](CC(C)C)C(=O)N[C@@H](Cc1ccccc1)C(=O)N[C@@H](CCCCN)C(=O)N[C@@H](Cc1ccccc1)C(=O)N[C@@H](Cc1ccccc1)C(=O)N[C@@H](CCCCN)C(=O)N[C@@H](CC(=O)O)C(=O)N[C@@H](CC(C)C)C(=O)N[C@@H](CC(C)C)C(=O)NCC(=O)N[C@@H](CCCCN)C(=O)N[C@@H](Cc1ccccc1)C(=O)N[C@@H](CC(C)C)C(=O)NCC(=O)N[C@@H](CC(N)=O)C(=O)N[C@@H](CC(N)=O)C(=O)O)C(C)C` [PSMα3], the “Capacity to cause neutrophil chemotaxis” value with human neutrophils is reported as “about twice higher than that caused by PSMα3N22Y at all tested concentrations”.
